Measurements: patent US5681823A, “P^1, P^4 -dithio-P^2 -P^3 -monochloromethylene 5', 5'"-diadenosine P^1, P^4 -tetraphosphate as antithrombotic agent” (PRP Inc., priority 1996, dated 1997)

Assays:
[1] = tested on: ADP-induced platelet aggregation; thrombus formation; conditions: in words; cited from earlier work
Platelets = assay: Distribution of ^125 I-labeled CHCl-AP4 A into blood cell fractions: platelets; format: binding, human
Description: (§1) There are, however, a variety of purinoceptors on other cell types. AP4 A analogues may bind not only to platelets but also to the erythrocytes and leukocytes when whole blood is treated with the agents. […] Platelets were separated by a gradual centrifugation, the packed red cells with buffy coats (leukocytes) were mixed, and fractionated by means of histopaque gradient separation (A. Boyum, Scand J. Clin. Lab. Invest. 21(suppl 97):77 (1968)). The cell fractions were washed twice and final suspensions were counted for cell number and the radioactivity. Percent distribution was calculated based on the CBC data of whole blood. Binding sites are expressed in the values per cells.

Leukocytes = assay: Distribution of ^125 I-labeled CHCl-AP4 A into blood cell fractions: leukocytes; format: binding, human
Description: as §1

Erythrocytes = assay: Distribution of ^125 I-labeled CHCl-AP4 A into blood cell fractions: erythrocytes; format: binding, human
Description: as §1

[2] = tested on: ADP-induced platelet aggregation; conditions: Zamecnik '550 Table 3, read-out: ID50 (the source's name); cited from earlier work
[3] = tested on: ADP-induced platelet aggregation; assay: Inhibition kinetic study, ADP-induced platelet aggregation; format: cell-based, human
Description: Unless otherwise provided below, the experimental procedures were performed according to the procedures provided in U.S. Pat. No. 5,049.550 (Zamecnik '550), the entire contents of which are incorporated herein by reference. Some alternative procedures (e.g., release reaction, PF3 assays) and a number of additional studies also are provided (e.g., cytoplasmic calcium mobilization, fibrinogen binding site, agonists other than ADP, platelet cAMP and distribution of CHCl-AP4 A into blood components). Blood was collected in a 0.1 volume of 3.8% sodium citrate from healthy human volunteers who had abstained from antiplatelet agents for at least 10 days. Platelet rich plasma (PRP) was separated by a gradual centrifugation and adjusted to 3.3×10^8 platelets per ml plasma. PRP has been utilized in the Examples unless otherwise stated.
An initial screening was performed for inhibitory effects of several agents (including, e.g., thio-CHCl-AP4 A and CHCl-AP4 A as reference agent)) on platelet aggregation induced by ADP. Platelet aggregation was measured with platelet-rich plasma (PKP) by the turbidimetric method of Born (J. Physiol. 162:67, 1962) in an aggregometer (Chrono-log, Model 530 VS). Platelet aggregation induced by 5 μM ADP in the absence or presence of 5 μM agents was examined. […]

[4] = 23 μM, 22° C., 30 minutes, mean of two

Structure (SMILES) | effect on thrombus formation on administration to a mammal [1] | Distribution (%) (Platelets; [4]) | Binding Sites (Platelets; gross estimation per cell) | binding sites per surface area, relative value (Platelets; relative, platelets) | Distribution (%) (Leukocytes; [4]) | Binding Sites (Leukocytes; gross estimation per cell) | binding sites per surface area, relative value (Leukocytes; relative, leukocytes) | Distribution (%) (Erythrocytes; [4]) | Binding Sites (Erythrocytes; gross estimation per cell) | binding sites per surface area, relative value (Erythrocytes; relative, erythrocytes) | IC50 [2] [nM] | nature of inhibition [3] | Ki ([3]; ADP-induced aggregation, read-out: inhibition constant (Ki)) [nM]
Nc1ncnc2c1ncn2[C@@H]1O[C@H](COP(=O)(O)OP(=O)(O)C(Cl)P(=O)(O)OP(=O)(O)OC[C@H]2O[C@@H](n3cnc4c(N)ncnc43)[C@H](O)[C@@H]2O)[C@@H](O)[C@H]1O (stereo partly shown) [CHCl-AP4 A] | inhibit thrombus formation | 0.55 | 3.08 × 10^5 per cells | 100 | 1.94 | 7.39 × 10^7 per cells | 1000 | 2.09 | 5.98 × 10^4 per cells | 1 | 3000 | – | –
Nc1ncnc2c1ncn2[C@@H]1O[C@H](COP(O)(=S)OP(=O)(O)C(Cl)P(=O)(O)OP(O)(=S)OC[C@H]2O[C@@H](n3cnc4c(N)ncnc43)[C@H](O)[C@@H]2O)[C@@H](O)[C@H]1O (stereo partly shown) [Thio-CHCl-AP4 A, P^1, P^4 -dithio -P^2 -P^3 monochloromethylene 5', 5'" diadenosine P^1, P^4 -tetraphosphate] | – | – | – | – | – | – | – | – | – | – | – | competitive inhibition | 330
